Assay results from PubChem BioAssay AID1963439 (Molecular Pharmacology Branch, DTP, NCI, 2024).
pIC50: −log10 of the molar value.

Tested on: NCI-H196 complex spheroids with HUVEC/MSC, growth % T/C
Assay: Anticancer human tumor NCI-H196 cell line growth inhibition [Asc];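 also: spheroids exposed to compound for 7 days before measurement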;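 as to viability, T/C: 100% = DMSO vehicle control wells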
Details: for pIC50: curve of first compound; for viability, T/C: stronger effect = lower value
In short: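 Complex solid-tumor spheroids incorporating human endothelial and mesenchymal stem cells received single agents or combinations over half-log dilution ranges anchored to clinical Cmax.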

[1] = second compound 0.1 µM, first compound 0.00316 µM
[2] = second compound 0.1 µM, first compound 0.01 µM
[3] = second compound 0.1 µM, first compound 0.0316 µM
[4] = second compound 0.1 µM, first compound 0.1 µM
[5] = second compound 0.1 µM, first compound 0.316 µM
[6] = second compound 0.1 µM, first compound 1 µM
[7] = second compound 0.316 µM, first compound 0.00316 µM
[8] = second compound 0.316 µM, first compound 0.01 µM
[9] = second compound 0.316 µM, first compound 0.0316 µM
[10] = second compound 0.316 µM, first compound 0.1 µM
[11] = second compound 0.316 µM, first compound 0.316 µM
[12] = second compound 0.316 µM, first compound 1 µM
[13] = second compound 1 µM, first compound 0.00316 µM
[14] = second compound 1 µM, first compound 0.01 µM
[15] = second compound 1 µM, first compound 0.0316 µM
[16] = second compound 1 µM, first compound 0.1 µM
[17] = second compound 1 µM, first compound 0.316 µM
[18] = second compound 1 µM, first compound 1 µM
[19] = second compound 3.16 µM, first compound 0.00316 µM
[20] = second compound 3.16 µM, first compound 0.01 µM
[21] = second compound 3.16 µM, first compound 0.0316 µM
[22] = second compound 3.16 µM, first compound 0.1 µM
[23] = second compound 3.16 µM, first compound 0.316 µM
[24] = second compound 3.16 µM, first compound 1 µM
[25] = second compound 10 µM, first compound 0.00316 µM
[26] = second compound 10 µM, first compound 0.01 µM
[27] = second compound 10 µM, first compound 0.0316 µM
[28] = second compound 10 µM, first compound 0.1 µM
[29] = second compound 10 µM, first compound 0.316 µM
[30] = second compound 10 µM, first compound 1 µM

Work on `O=C(c1ccc(F)c(F)c1Nc1ccc(I)cc1F)N1CC(O)([C@@H]2CCCCN2)C1` + Cc1c(S(C)(=O)=O)c(-c2cc(F)cc(N3CCN(c4ccc(NS(=O)(=O)c5ccc(NC(CCN6CCC(C(=O)OCCCP(=O)(O)O)CC6)CSc6ccccc6)c(S(=O)(=O)C(F)(F)F)c5)cc4)CC3)c2)c(-c2ccc(Cl)cc2)n1C(C)C yielded a pIC50 (second compound 0.1 µM) of less than 6.00, a pIC50 (second compound 0.316 µM) of less than 6.00 and a pIC50 (second compound 1 µM) of less than 6.00. For the same compound, the pIC50 (second compound 3.16 µM) was less than 6.00, the pIC50 (second compound 10 µM) was less than 6.00 and the viability, T/C [1] was 103%. The viability, T/C [2] was 104%, the viability, T/C [3] was 108% and the viability, T/C [4] was 102%. For the same compound, the viability, T/C [5] was 117%, the viability, T/C [6] was 125% and the viability, T/C [7] was 99%. The viability, T/C [8] was 96.1%, the viability, T/C [9] was 88.6% and the viability, T/C [10] was 97.4%. For the same compound, the viability, T/C [11] was 105%, the viability, T/C [12] was 117% and the viability, T/C [13] was 84.9%. It also gave a viability, T/C [14] of 89.1%, a viability, T/C [15] of 93.9% and a viability, T/C [16] of 106%. It also gave a viability, T/C [17] of 108%, a viability, T/C [18] of 117% and a viability, T/C [19] of 79.8%. It also gave a viability, T/C [20] of 87.3%, a viability, T/C [21] of 87.8% and a viability, T/C [22] of 85.4%. It also gave a viability, T/C [23] of 102%, a viability, T/C [24] of 106% and a viability, T/C [25] of 74.5%. The viability, T/C [26] was 85.8%, the viability, T/C [27] was 81.2% and the viability, T/C [28] was 83%. It also gave a viability, T/C [29] of 90.6% and a viability, T/C [30] of 97%.
`C=CC(=O)N1CCN(c2nc(=O)n(-c3c(C)ccnc3C(C)C)c3nc(-c4c(O)cccc4F)c(F)cc23)C(C)C1` (stereo not given) + CCN1C(C(=O)NC23CCC(C(=O)O)(CC2)CC3)C(c2cccc(Cl)c2F)C2(C(=O)Nc3cc(Cl)ccc32)C12CCCCC2 was tested, and the pIC50 (second compound 0.03 µM) was less than 5.00, the pIC50 (second compound 0.0949 µM) was less than 5.00 and the pIC50 (second compound 0.3 µM) was less than 5.00. The pIC50 (second compound 0.949 µM) was less than 5.00, the pIC50 (second compound 3 µM) was less than 5.00 and the viability, T/C (second compound 0.03 µM, first compound 0.0316 µM) was 104%. It also gave a viability, T/C (second compound 0.03 µM, first compound 0.1 µM) of 105%, a viability, T/C (second compound 0.03 µM, first compound 0.316 µM) of 104% and a viability, T/C (second compound 0.03 µM, first compound 1 µM) of 107%. It also gave a viability, T/C (second compound 0.03 µM, first compound 3.16 µM) of 121%, a viability, T/C (second compound 0.03 µM, first compound 10 µM) of 107% and a viability, T/C (second compound 0.0949 µM, first compound 0.0316 µM) of 111%. It also gave a viability, T/C (second compound 0.0949 µM, first compound 0.1 µM) of 111%, a viability, T/C (second compound 0.0949 µM, first compound 0.316 µM) of 121% and a viability, T/C (second compound 0.0949 µM, first compound 1 µM) of 112%. It also gave a viability, T/C (second compound 0.0949 µM, first compound 3.16 µM) of 106%, a viability, T/C (second compound 0.0949 µM, first compound 10 µM) of 103% and a viability, T/C (second compound 0.3 µM, first compound 0.0316 µM) of 106%. For the same compound, the viability, T/C (second compound 0.3 µM, first compound 0.1 µM) was 109%, the viability, T/C (second compound 0.3 µM, first compound 0.316 µM) was 108% and the viability, T/C (second compound 0.3 µM, first compound 1 µM) was 107%. For the same compound, the viability, T/C (second compound 0.3 µM, first compound 3.16 µM) was 117%, the viability, T/C (second compound 0.3 µM, first compound 10 µM) was 119% and the viability, T/C (second compound 0.949 µM, first compound 0.0316 µM) was 123%. For the same compound, the viability, T/C (second compound 0.949 µM, first compound 0.1 µM) was 110%, the viability, T/C (second compound 0.949 µM, first compound 0.316 µM) was 115% and the viability, T/C (second compound 0.949 µM, first compound 1 µM) was 110%. It also gave a viability, T/C (second compound 0.949 µM, first compound 3.16 µM) of 140%, a viability, T/C (second compound 0.949 µM, first compound 10 µM) of 110% and a viability, T/C (second compound 3 µM, first compound 0.0316 µM) of 116%. The viability, T/C (second compound 3 µM, first compound 0.1 µM) was 120%, the viability, T/C (second compound 3 µM, first compound 0.316 µM) was 115% and the viability, T/C (second compound 3 µM, first compound 1 µM) was 124%. The viability, T/C (second compound 3 µM, first compound 3.16 µM) was 135% and the viability, T/C (second compound 3 µM, first compound 10 µM) was 132%.
For `CCN1CCN(Cc2ccc(Nc3ncc(F)c(-c4cc(F)c5nc(C)n(C(C)C)c5c4)n3)nc2)CC1` + Cc1c(S(C)(=O)=O)c(-c2cc(F)cc(N3CCN(c4ccc(NS(=O)(=O)c5ccc(NC(CCN6CCC(C(=O)OCCCP(=O)(O)O)CC6)CSc6ccccc6)c(S(=O)(=O)C(F)(F)F)c5)cc4)CC3)c2)c(-c2ccc(Cl)cc2)n1C(C)C, the pIC50 (second compound 0.1 µM) was less than 6.00, the pIC50 (second compound 0.316 µM) was less than 6.00 and the pIC50 (second compound 1 µM) was less than 6.00. It also gave a pIC50 (second compound 3.16 µM) of less than 6.00, a pIC50 (second compound 10 µM) of less than 6.00 and a viability, T/C [1] of 101%. For the same compound, the viability, T/C [2] was 95.4%, the viability, T/C [3] was 101% and the viability, T/C [4] was 104%. It also gave a viability, T/C [5] of 102%, a viability, T/C [6] of 109% and a viability, T/C [7] of 94.1%. The viability, T/C [8] was 102%, the viability, T/C [9] was 92.6% and the viability, T/C [10] was 104%. The viability, T/C [11] was 104%, the viability, T/C [12] was 113% and the viability, T/C [13] was 92.2%. It also gave a viability, T/C [14] of 91.7%, a viability, T/C [15] of 92.2% and a viability, T/C [16] of 102%. It also gave a viability, T/C [17] of 104%, a viability, T/C [18] of 105% and a viability, T/C [19] of 90.2%. The viability, T/C [20] was 88.8%, the viability, T/C [21] was 80.1% and the viability, T/C [22] was 85.3%. For the same compound, the viability, T/C [23] was 93.1%, the viability, T/C [24] was 86% and the viability, T/C [25] was 77.2%. It also gave a viability, T/C [26] of 76.2%, a viability, T/C [27] of 81.4% and a viability, T/C [28] of 83.6%. It also gave a viability, T/C [29] of 86.2% and a viability, T/C [30] of 80.8%.
